From publication PMC11623267, “Inhibitors of malaria parasite cyclic nucleotide phosphodiesterases block asexual blood-stage development and mosquito transmission” (Science Advances, 2024) come the findings set out here.

Read-outs that look alike come from different tables or passages of the source. Where only a bound is given, the exact number is not on record here.

One assay has as its system HepG2 cells. Kind of assay: HepG2 cytotoxicity. The format is cell-based. An excerpt: Table 1. Key activity data for the three main chemical subseries against ABS parasites, parasite fractions, and HepG2 cells. ND, not determined; ×/÷ is the geometric mean with geometric SD. | column: HepG2 EC50 (nM) (selectivity index)
In assay [1] the test system is P. falciparum NF54-HGL stage V gametocytes fed to A. stephensi mosquitoes. Kind of assay: SMFA dose response (luminescence). The format is in vivo, Plasmodium falciparum. As to the method:
Compounds were diluted in DMSO and then in culture medium (RPMI 1640 supplemented with 367 μM hypoxanthine, 25 mM Hepes, 25 mM sodium bicarbonate, and 10% human type A serum) to achieve a final DMSO concentration of 0.1%. Compounds were incubated with stage V gametocytes from the P. falciparum NF54-HGL reporter strain ([60]) for 48 hours at 37°C in Eppendorf tubes. Subsequently, parasites were pelleted by centrifugation (20 s at 20,000g) and resuspended in human type A serum containing diluted compound (final DMSO concentration of 0.1%) and human type O RBCs to achieve a hematocrit of 50%. This blood meal was then fed to 3- to 5-day-old A. stephensi mosquitoes [Sind-Kasur Nijmegen strain ([61])] for 10 min. Following feeding, unfed mosquitoes were removed, and mosquitoes were maintained at 26°C and 70 to 80% relative humidity. Eight days after feeding, oocyst intensity and prevalence were assessed by luminescence measurement of individual mosquitoes as described ([60]). All conditions were tested in duplicate, and for each replicate, a total of 24 mosquitoes were analyzed. IC50 values were estimated by fitting a four-parameter Hill model to the data using least squares to find the best fit. Controls included vehicle (0.1% DMSO) and 10 μM DHA.

In the assay on HepG2 cells (Homo sapiens, HepG2), `CC(C)c1n[nH]c2c(=O)[nH]c(Cc3ccc(F)cc3F)nc12` [SAL-0010003] had an EC50 greater than 25000 nM. In the assay on HepG2 cells (value in brackets after HepG2 EC50), this molecule gave a HepG2 selectivity index greater than 77. The IC50 in assay [1] (read-out: SMFA IC50 infection (transmission) prevalence, 48 hours incubation; oocysts 8 days after feeding) worked out at 116 nM; in assay [1] (read-out: SMFA IC50 infection (transmission) prevalence; 48 hours incubation; oocysts 8 days after feeding) it was 116 nM; in assay [1] (read-out: SMFA IC50 oocyst (transmission) intensity, 48 hours incubation; oocysts 8 days after feeding), 67.3 nM; in assay [1] (read-out: SMFA IC50 oocyst (transmission) intensity; 48 hours incubation; oocysts 8 days after feeding), 67 nM.

By EC50 is commonly meant the midpoint of the concentration-response curve. Lower therefore signals higher potency in that assay. The term IC50 denotes the midpoint of a concentration-inhibition curve.
